Experimental data: patent publication US20080241274A1 (ZIOPHARM Oncology, Inc., priority 2006, published 2008)
pIC50: −log10 of the molar value. Like-named read-outs stand apart in the source and are kept apart here.

Experiments:
[1] = test system: MCF7 breast cancer xenografts; assay: MCF7 breast cancer xenograft; format: in vivo, Human; settings: 38.3 mg/kg/d, 4×(3× week), at sacrifice of control group animals
Description: (§1) The significant differences in pharmacodynamics and safety profile of indibulin make it a strong candidate for development as an anti-cancer drug.

[2] = test system: biotin-labeled calf brain tubulin; assay: Competition with 3H-colchicine for tubulin binding (SPA beads); parameters: species or system bovine; settings: 200-fold molar excess of cold competitor; FIG. 8
Method: Where indicated, a 200-fold molar excess of cold competitor was added. Tubulin heterodimers were then precipitated with streptavidin-coated SPA beads and bound radioactivity was determined. “No tubulin” indicates non-specifically bound radioactivity measured in the absence of biotin-labeled tubulin.

[3] = test system: MCF-7 ER-positive breast cancer; assay: Monolayer assay (DNA content by propidium iodide), single agents and indibulin combinations, MCF-7; format: cell-based, human
Method: (§2) The monolayer assay determines the in vitro antitumor activity of test compounds and their capacity to inhibit survival and proliferation of established tumor cell lines. These effects can be determined by establishing the number of viable cells based on measuring the DNA content using propidium iodide. […] Between 5,000 and 10,000 cells were seeded in 96 well plates on Day 0 and the compounds were added 1 day later and incubated for 4 days. The activity was assessed by their IC50 and IC70 values.
(§3) Growth IC50 and IC70 values (Table 2) were determined using XLfit software package, and used to set the concentration ranges and drug ratios for the synergy detection part of the study.
(§4) Chou-Talalay median effect method was used to quantitatively characterize drug-drug interaction [Chou T. C. Theoretical basis, experimental design, and computerized simulation of synergism and antagonism in drug combination studies. Pharmacol Rev. 2006 September; 58(3):621-81]. […] Mixtures of the drugs at multiples of their single agent IC50's were prepared, as well as serial dilutions of the mixture. Additionally, single agent dose response was determined for the same concentration ranges as used for combination study.
(§5) The coefficient of interaction (CI(IC50)) at IC50 and coefficient of interaction under optimal experimental concentrations (CI(e)) were determined using CalcuSyn software package (Table 3, tests were performed in quadruplicate, mean values reported). Commonly, experimental values of CI<0.8 are considered synergistic, 0.8<CI<1.2 additive.

[4] = test system: DMBA induced mammary carcinoma; assay: DMBA induced mammary carcinoma in rats; format: in vivo, Rat; settings: 46.4 mg/kg/d, 2×(3× week), at sacrifice of control group animals
Description: as §1

[5] = test system: human vulvar squamous cell carcinoma xenograft (A431); assay: A431 vulvar squamous cell carcinoma xenograft; format: in vivo; settings: 27.5 mg/kg/d, 3×(3× week), at sacrifice of control group animals
Description: as §1

[6] = test system: murine renal cell carcinoma RENCA; assay: Murine renal cell carcinoma RENCA model; format: in vivo, Mouse
Method: 1.5×10^6 RENCA cells were injected into the subcapsular space of the kidney through a flank incision (Day 1). […] On Day 21 mice were sacrificed and weight and volume of primary tumors, weight and number of metastases of the lung and metastasis formation in the abdominal lymph nodes determined. […] TNP-470 has shown anti-tumor activity in different animal models and is well established for its use in RENCA.
as §1

[7] = test system: human ovarian xenograft (SK-OV-3); assay: SK-OV-3 ovarian xenograft; format: in vivo; settings: SKOV-3; 100 mg/kg/d, d. 0, 7, 14; at sacrifice of control group animals
Description: as §1

[8] = test system: human prostate cancer xenograft (PC-3); assay: PC-3 prostate cancer xenograft; format: in vivo; settings: 180 mg/kg/d, d. 0, 7, 14, at sacrifice of control group animals
Description: as §1

[9] = test system: SKOV3 (ovarian); assay: Monolayer assay (DNA content by propidium iodide), single agents and indibulin combinations, SKOV3; format: cell-based, human; settings: Homo sapiens
Method: as §2, §3, §4, §5

[10] = test system: adult bovine brain tubulin; assay: Tubulin polymerization, adult bovine brain tubulin; format: biochemical; settings: bovine brain tubulin; at the highest dose tested
Description: (§6) Tubulin from neuronal tissue is post-translationally modified and the degree of modification increases during neuronal development. Calf brain neuronal tubulin and tubulin from other tissues differ in their post-translational modifications from that of adult bovine brain. […] Tubulin polymerization is given as % over DMSO control.

[11] = test system: axonal microtubules of rat pheochromocytoma (PC12) cells; assay: Axonal microtubule immunostaining in NGF-differentiated PC12 cells; format: cell-based; settings: PC12 neurites induced by NGF 5-6 days; 24 h treatment at 2×IC50 concentration
Description: The outgrowth of neurites of PCl2 was induced by NGF for 5-6 days. […] Microtubules within the neurites, were visualized by immunostaining with an antibody recognizing acetylated (axonal) tubulin, leaving the cell bodies unstained.

[12] = test system: purified calf brain tubulin; assay: Tubulin polymerization, calf brain tubulin; format: biochemical, bovine; settings: FIG. 9, read-out: IC50 of inhibition of tubulin polymerization
Description: as §6

[13] = test system: PC3 (prostate); assay: Monolayer assay (DNA content by propidium iodide), single agents and indibulin combinations, PC3; format: cell-based, human; settings: for Combination IC50: PC3, concentration of the named drug in the combination
Method: as §2, §3, §4, §5

[14] = test system: un-biotinylated calf brain tubulin; settings: G. Bacher, Cancer Res. 61, 2001; cited from earlier work
[15] = test system: A549 NSCLC; assay: Monolayer assay (DNA content by propidium iodide), single agents and indibulin combinations, A549; format: cell-based, human; settings: for IC50: Homo sapiens
Method: as §2, §3, §4, §5

[16] = test system: series of cancer models (RENCA, DMBA, SK-OV-3, PC-3, A431, U 87, MCF-7, A 549); assay: Series of cancer models in animals (overall statement); format: in vivo
Description: as §1

[17] = MCF7, indibulin + 5-FU (5FU:indibulin 10.9:1), concentration of the named drug in the combination
[18] = MCF7, indibulin + paclitaxel (paclitaxel:indibulin 0.27:1), concentration of the named drug in the combination
[19] = MCF7, indibulin + tamoxifen (tamoxifen:indibulin 100:1), concentration of the named drug in the combination
[20] = MCF7, indibulin + vinorelbine (vinorelbine:indibulin 0.016:1), concentration of the named drug in the combination
[21] = A549, single agent (combination study)

In the case of `O=C(Nc1ccncc1)C(=O)c1cn(Cc2ccc(Cl)cc2)c2ccccc12` [Indibulin, N-(pyridin-4-yl)-[1-(4-chlorobenzyl)-indol-3-yl]-glyoxylic acid amide], the “Growth Inhibition (%)” value [1] was >100%, the “Inhibition of 3H-colchicine binding” value [2] was “about 40%” and the IC50 ([3]; Homo sapiens, MCF7, MCF7, single agent (combination study), read-out: Single Agent IC50) was 0.013 µg/mL. For the same compound, the “Single Agent IC84” value ([3]; MCF7, single agent (combination study)) was 53 ng/mL, the “Combination IC50” value [3, 17] was 0.005 µg/mL and the “Combination IC60” value [3, 17] was 0.0028 µg/mL. The “Combination IC50” value ([3]; MCF7, indibulin + doxorubicin, concentration of the named drug in the combination) was 0.011 µg/mL, the “Combination IC50” value [3, 18] was 0.004 µg/mL and the “Combination IC84” value [3, 18] was 10 ng/mL. For the same compound, the “Combination IC50” value [3, 19] was 0.004 µg/mL, the “Combination IC60” value [3, 19] was 0.0064 µg/mL and the “Combination IC50” value [3, 20] was 0.008 µg/mL. The “Combination IC60” value [3, 20] was 0.006 µg/mL, the “Growth Inhibition (%)” value [4] was 99.5% and the “Growth Inhibition (%)” value [5] was 63%. For the same compound, the “Growth Inhibition (%)” value ([6]; RENCA, 17.5 mg/kg/d, d. 1-20(5× week), at sacrifice of control group animals) was 90%, the “Number of lung metastases” value ([6]; oral, daily Day 1-20 (5×/week), Day 21) was “trend in reduction of number of lung metastases but was not statistically significant” and the “Reduction in tumor volume and weight” value ([6]; oral, daily Day 1-20 (5×/week), primary tumors on Day 21, FIG. 12) was “statistically significant”. For the same compound, the “Growth Inhibition (%)” value [7] was 53%, the “Growth Inhibition (%)” value [8] was 63% and the IC50 ([9]; SK-OV-3, SKOV3, single agent (combination study), read-out: Single Agent IC50) was 0.415 µg/mL. The IC50 ([9]; SK-OV-3, SKOV3, indibulin + carboplatin, concentration of the named drug in the combination, read-out: Combination IC50) was 0.029 µg/mL, the IC50 ([9]; SK-OV-3, SKOV3, indibulin + cisplatin, concentration of the named drug in the combination, read-out: Combination IC50) was 0.022 µg/mL and the IC50 ([9]; SK-OV-3, SKOV3, indibulin + gemcitabine, concentration of the named drug in the combination, read-out: Combination IC50) was 0.047 µg/mL. For the same compound, the “Inhibition of tubulin polymerization” value [10] was 25%, the “Effect on axonal microtubules (acetylated tubulin immunostaining)” value [11] was “did not affect axonal microtubules” and the pIC50 [12] was ~6.60. The IC50 ([13]; Homo sapiens, PC3, single agent (combination study), read-out: Single Agent IC50) was 0.034 µg/mL, the “Combination IC50” value ([13]; indibulin + estramustine) was 0.014 µg/mL and the “Combination IC50” value ([13]; indibulin + prednisolone) was 0.012 µg/mL. For the same compound, the “Competition with 3H-colchicine binding” value [14] was “does not compete”, the “Single Agent IC40” value [15, 21] was 0.071 µg/mL and the “Single Agent IC50” value [15, 21] was 0.054 µg/mL. For the same compound, the “Single Agent IC60” value [15, 21] was 0.129 µg/mL, the “Single Agent IC70” value [15, 21] was 0.095 µg/mL and the “Combination IC70” value ([15]; A549, indibulin + carboplatin (carboplatin:indibulin 303:1), concentration of the named drug in the combination) was 0.027 µg/mL. The “Combination IC40” value ([15]; A549, indibulin + erlotinib (erlotinib:indibulin 208:1), concentration of the named drug in the combination) was 0.021 µg/mL, the “Combination IC60” value ([15]; A549, indibulin + etoposide, concentration of the named drug in the combination) was 0.068 µg/mL and the IC50 ([15]; A549, 96 h, A549, single agent, 4 days incubation, read-out: Growth IC50) was 0.038 µg/mL. The IC50 ([15]; A549, A549, single agent (combination study), read-out: Single Agent IC50) was 0.092 µg/mL, the IC50 ([15]; A549, A549, indibulin + carboplatin (carboplatin:indibulin 303:1), concentration of the named drug in the combination, read-out: Combination IC50) was 0.011 µg/mL and the IC50 ([15]; A549, A549, indibulin + erlotinib (erlotinib:indibulin 208:1), concentration of the named drug in the combination, read-out: Combination IC50) was 0.03 µg/mL. For the same compound, the “Anti-tumor activity in all models” value ([16]; all models tested) was “strong and statistically significant anti-tumor activity” and the “Neurotoxicity or loss of body weight” value ([16]; animals at efficacious doses) was “no signs of neurotoxicity or loss of body weight”.
